{"source": "paper PMC9169222", "about": "“Impedance-Based Phenotypic Readout of Transporter Function: A Case for Glutamate Transporters” (Frontiers in Pharmacology, 2022)", "tested_on": "JumpIn-EAAT1-LifeAct-GFP cells", "assay": "Automated confocal microscopy of the actin cytoskeleton (cell spreading)", "assay_type": "cell-based, human", "details": "dox-induced cells, 1 mM, within 2 h", "description": "For visualization of the actin cytoskeleton, JumpIn-EAAT1 cells were transduced with a lentiviral GFP-LifeAct cDNA expression vector and were maintained in culture medium containing 2 μg/ml puromycin to select for successfully transduced cells.\nJumpIn-EAAT1-LifeAct-GFP cells were seeded at 20,000 cells/well on a SCREENSTAR black-walled clear-bottom 96-well culture plate in 90 µl culture medium and grown for 24 h at 37°C and 5% CO2. […] Microscopy was performed on a Nikon Eclipse Ti2 C2+ confocal microscope (Nikon, Amsterdam, Netherlands). This system was equipped with a 37°C incubation chamber, an automated xy-stage, an integrated Perfect Focus System (PFS) and 408, 488, and 561 nm lasers. The system was controlled by Nikon’s NIS software. All images were acquired using a Plan-Apochromat ×20 objective with 0.75 NA, at a resolution of 512 × 512 pixels.", "note": "Structures can show the parent of a compound that is named as a salt.", "data": [{"compound": "N[C@@H](CCC(=O)O)C(=O)O", "note": "[L-glutamate, L-glutamic acid monosodium salt monohydrate]", "values": [{"measurement": "Change in cell morphology after stimulation", "value": "drastically extend their actin cytoskeleton outward"}]}]}
